Measurements: patent US11000502B2, “Antimicrobial compositions comprising copper-hydroxypyrone complexes” (United Kingdom Research and Innovation, priority 2017, dated 2021)

Assays:
[1] = test system: E. coli NCTC1110; assay: In vitro antibacterial assay for liquid copper solutions (turbidimetric E. coli growth inhibition); type: cell-based
Procedure: Preparation of Copper Complexes with EDTA, Maltol and Ethyl Maltol for Antimicrobial Testing
Cu-EDTA complexes were freshly prepared by dissolving CuCl2.2H2O and disodium ethylenediaminetetraacetate (EDTA) di-hydrate in UHP water. The pH was adjusted to 7.5±0.2 with 1M NaOH. Various Cu:EDTA ratios were achieved by maintaining concentration copper at 20 mM (ca. 1270 ppm), whilst changing that of EDTA—20 and 200 mM—thus achieving Cu-EDTA ratios of 1:1 and 1:10, respectively.
CuMaltol (ratio 1:1) was prepared by mixing equivalent volumes of 100 mM CuCl2.2H2O solution with an alkaline (pH>11) 100 mM maltol solution and quickly diluting the mixture to 10 mM Cu (final pH of 5.7).
Cu Ethylmaltol (ratio 1:1) was prepared by mixing appropriate volumes of 80 mM CuCl2.2H2 O solution with an alkaline (pH>10.5) 20 mM ethylmaltol solution and quickly diluting the mixture to 10 mM Cu and 10 mM ethylmaltol (final pH of 7.2).
CuMaltol (ratio 1:4) was prepared by mixing appropriate volumes of 80 mM CuCl2.2H2O solution with an alkaline (pH>10.5) 60 mM maltol solution and quickly diluting the mixture to 10 mM Cu and 40 mM maltol (final pH of 8.5).
Cu Ethylmaltol (ratio 1:4) was prepared by mixing appropriate volumes of 80 mM CuCl2.2H2O solution with an alkaline (pH>10.5) 60 mM ethylmaltol solution and quickly diluting the mixture to 10 mM Cu and 40 mM ethylmaltol (final pH of 8.5).
Heavy Metal MOPS (HMM) Medium, pH 7.2±0.2.
HMM is a defined medium developed for testing heavy metals and here was supplemented with glucose and cas-amino acids (acid hydrolysate of casein) and optionally with 4% BSA. HMM was prepared from concentrated stock solutions of each reagent, and pH adjusted to 7.2±0.2 (Table 1). Freshly prepared medium was immediately filtered through a 0.22 micron membrane and stored at 4±2° C.
In Vitro Antibacterial Assay for Liquid Copper Solutions
Antimicrobial activity was assessed through determination of E. coli NCTC1110 growth inhibition in the presence of copper compounds. A turbidimetric assay was used to follow bacterial concentration over time as this is proportional to optical density (OD at 595 nm) in liquid medium. Bacterial cultures were grown overnight in HMM at 30° C. under constant shaking (80 rpm). On the day of the assay, the OD of the bacterial suspension was measured at 595 nm on a plate reader and diluted in HMM to achieve an OD of 0.05. […] Final copper concentrations in the assay ranged between 0.4 and 50 ppm, and OD was measured every hour for a typical period of 6 to 8 hours. OD background, i.e. OD absorbance not caused by bacteria, was determined to remove readout interference from copper and broth. Growth inhibition was calculated as follows: […]

[2] = Exemplification of redox protection (copper maltol degradation to cuprous hydroxide); type: physicochemical; conditions: pH 11.8 with sodium hydroxide; overnight (A) / several days (B, 30% (w/w) PEG)
Procedure: Exemplification of Redox Protection
A 40 mM copper stock was prepared by dissolving 0.347 g copper chloride dihydrate in 50 mL water. The resulting solution was blue.
A 160 mM maltol stock was prepared by dissolving 1.01 g maltol in 50 mL water and pH adjusting with NaOH (pH>10.5. This produced a clear solution.
Experiment A: Copper Maltol Degradation
The copper and maltol stocks were mixed in water at 1:1 ratios (v:v) producing a green solution. pH was then adjusted to 11.8 with sodium hydroxide to accelerate redox conversion.
Experiment B: Copper Maltol-PEG Assemblies Prevent Redox Conversion
Same as experiment A but 30% (w/w) PEG was added.

Compound: O=C([O-])CN(CCN(CC(=O)[O-])CC(=O)O)CC(=O)O.[Cu+2] [copper EDTA, reference compound]
- antibacterial action against E. coli (FIG. 1) ([1]; HMM pH 7.2, 6 hours, Cu:EDTA 1:1 and 1:10): significantly suppressing its antibacterial action

Compound: [Cl][Cu][Cl] [copper chloride, reference compound]
- E. coli growth inhibition ([1]; bacterial media (HMM) comprising 4% BSA, 50 ppm copper, 6 hours): 60%

Compound: Copper ethylmaltol
- antimicrobial properties in protein-rich environments ([1]; HMM with 4% BSA, 6 hours, ratios 1:1 and 1:4): retained

Compound: copper maltol
- redox conversion of Cu2+ to cuprous hydroxide (red precipitate) [2]: a red precipitate (cuprous hydroxide) deposited
- suppression of E. coli growth ([1]; bacterial media (HMM) comprising 4% BSA, 40 ppm copper, 6 hours): completely suppressed
